Test results reported in paper PMC7710018, “Restoration of motor learning in a mouse model of Rett syndrome following long-term treatment with a novel small-molecule activator of TrkB” (Disease Models & Mechanisms, 2020).

Assays:
[1] = test system: 55 pharmacologically relevant receptors; set-up: method as in Massa et al., 2010; details: standard screening concentration; ref Massa et al., 2010; cited from earlier work
[2] = test system: rat model of traumatic brain injury; set-up: method as in Massa et al., 2010; details: ref Massa et al., 2010; cited from earlier work
[3] = test system: Ca2+ channel (L, verapamil site) (phenylalkylamine); assay: Cerep ExpresSProfile radioligand binding; details: 10 micromolar; antagonist radioligand
Procedure: (§1) To evaluate the relative binding specificity of LM22A-4 ([Massa et al., 2010]) and PTX-BD4-3, binding to a broad range of 55 pharmacologically relevant receptors, including numerous neurotransmitter and G-protein coupled receptors was assessed using standard radioligand competition binding assays (ExpressSProfile) performed by Cerep, Inc. (Seattle, WA, USA). In addition, ADME-Tox analysis was performed by Cerep, Inc. All experimental conditions are described on the Cerep website (www.cerep.fr). […]
(§2) Table S1. In vitro binding assays. An ExpresSProfile screen of PTX-BD4-3 binding to a panel of pharmacologically relevant receptors was conducted by Cerep, Inc.
(§3) (Eurofins Panlabs, MO). The results are expressed as percent inhibition of control specific binding obtained in the presence of 10 micromolar PTX-BD4-3. In this assay, values below 50% indicate no specific binding of PTX-BD4-3. The assay was negative for PTX-BD4-3 binding to all of the 55 receptors in the screen.
(§4) (also on this page, place not known: 2B 5‐HT 3 5‐HT 5a 5‐HT 6 5‐HT 7 (agonis t VPAC 1 V 1 Ca 2+ K V SK Ca Na + Cl ‐ 5‐HT Disease Models & Mechanisms: doi:10.1242/dmm.044685: Supplementary information Disease Models & Mechanisms • Supplementary information)

sst (non-selective) = assay: Cerep ExpresSProfile radioligand binding; details: 10 micromolar; agonist radioligand
Procedure: as §1, §2, §3, §4

β1 (h) = molecular target: T1, β1 (h) (Homo sapiens, UniProt P08588); assay: Cerep ExpresSProfile radioligand binding; details: 10 micromolar; agonist radioligand; read-out: % Inhibition of Control Specific Binding 1st
T1 construct: purchased Cerep (ExpresSProfile)
Procedure: as §1, §2, §3, §4

[4] = test system: 3T3 parent line, which does not express Trk receptors; assay: NIH-3T3 cell survival; assay type: cell-based, mouse; details: serum-free medium
AKT = assay: In vivo TrkB signaling, western blot of hippocampus and mPFC; set-up: species or system mouse; details: male Mecp2 null mice, 50 mg/kg i.p. once daily 5 days, 1 h after last injection, vs saline
Procedure: (§5) Animals were given either single or repeated doses of PTX-BD4-3 (50 mg/kg, i.p.) or vehicle (saline) and then sacrificed for tissue harvesting and western blot analysis of phosphorylated and total TrkB (pTrkB/TrkB), AKT (also known as AKT1) (pAKT/AKT) and ERK (also known as MAPK) (pERK/ERK), respectively, in the hippocampus and medial prefrontal cortex (mPFC).
(§6) Fig. 4. PTX-BD4-3 activates TrkB signaling in vivo following systemic administration in null male Mecp2 mutant mice. Null mice were treated for 5 days with once daily injections of PTX-BD4-3 (open bars, 50 mg/kg, i.p.) or saline (black bars, vehicle) and then sacrificed 1 h after the last injection. Brain lysates from the hippocampus and medial prefrontal cortex (mPFC) were processed for western blot analysis of phosphorylated and total TrkB (pTrkB^Y817/TrkB), AKT (pAKT/AKT) and ERK (pERK/ERK) as described in the Materials and Methods. For detection of total TrkB, AKT and ERK, blots were concomitantly probed with the respective total protein antibodies and each of the three bands quantitated as indicated by arrows. For ERK, the pair of bands (consistent with ERK1 and ERK2 isoforms) indicated by the brackets was quantitated together as one value. For each tissue, the same blot and images for total protein (TrkB, AKT, ERK, actin) are shown here in triplicate as an adjacent reference to phospho-protein detection. For detection of phospho-proteins in the hippocampus, blots were probed separately with the three indicated phospho antibodies. For detection in the mPFC, blots were probed separately for pTrkB and probed for pAKT and pERK concomitantly; and for the latter two, the same blot and image are shown here in duplicate as an adjacent reference to phospho-protein detection. ^§P<0.01 (compared to vehicle); *P<0.05 (compared to vehicle); Student's t-test.
(§7) Frozen tissues were lysed in RIPA lysis buffer (150 mM NaCl, 50 mM Tris, pH 7.4, 1 mM EDTA, 1% Triton X-100 or 1% NP40, 10% glycerol, 1 mM phenylmethylsulfonyl fluoride, Na3VO4 and protease inhibitor cocktail). Lysates were mixed with 4× NuPAGE LDS loading buffer and dithiothreitol, and 50 μg protein was loaded per lane on a NuPAGE 4-12% Bis-Tris gradient gel and transferred to polyvinylidene difluoride membrane (run at 100 V for 1.5 h). […]

ERK = assay: as above; set-up: species or system mouse; details: male Mecp2 null mice, 50 mg/kg i.p. once daily 5 days, 1 h after last injection, vs saline
Procedure: as §5, §6, §7

TrkB = assay: as above; set-up: species or system mouse; details: male Mecp2 null mice, vs saline
Procedure: as §5, §6, §7

T1 sequence (P08588 whole entry): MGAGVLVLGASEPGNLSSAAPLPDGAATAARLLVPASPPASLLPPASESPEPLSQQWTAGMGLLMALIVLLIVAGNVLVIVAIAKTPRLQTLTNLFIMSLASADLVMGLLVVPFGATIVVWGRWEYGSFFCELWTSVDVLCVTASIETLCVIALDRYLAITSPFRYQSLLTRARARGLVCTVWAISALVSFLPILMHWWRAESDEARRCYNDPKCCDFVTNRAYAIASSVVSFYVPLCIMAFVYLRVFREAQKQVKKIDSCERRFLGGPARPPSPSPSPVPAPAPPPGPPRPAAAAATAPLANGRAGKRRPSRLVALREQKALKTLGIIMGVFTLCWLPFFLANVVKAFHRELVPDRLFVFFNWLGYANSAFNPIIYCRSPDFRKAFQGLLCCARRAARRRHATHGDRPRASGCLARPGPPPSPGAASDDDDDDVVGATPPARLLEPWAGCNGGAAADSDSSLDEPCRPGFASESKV

Row | Compound | binding within the panel of 55 receptors [1] | motor learning [2] | % Inhibition of Control Specific Binding 1st [3] | % Inhibition of Control Specific Binding 1st (sst (non-selective)) | % Inhibition of Control Specific Binding Mean (sst (non-selective)) | inhibition at 10 µM (β1 (h)) | survival of the 3T3 parent line [4] | pAKT/AKT (AKT) | pERK/ERK (ERK) | pTrkB/TrkB (TrkB; 50 mg/kg i.p. once daily 5 days, 1 h after last injection, hippocampus and mPFC) | expression of total TrkB, AKT or ERK (TrkB; 50 mg/kg i.p.)
1 | O=C(NCCO)c1cc(C(=O)NCCO)cc(C(=O)NCCO)c1 [LM22A-4, N,N′,N′′-tris(2-hydroxyethyl)-1,3,5-benzenetricarboxamide, reference compound] | no significant binding | improve motor learning | – | – | – | – | – | – | – | – | –
2 | COCCN(C)C(=O)c1cc(C(=O)N(C)CCOC)cc(C(=O)N(C)CCOC)c1 [PTX-BD4-3, benzene-1,3,5-tricarboxylic acid tris-[(2-methoxy-ethyl)-methyl-amide]] | – | – | 0% | 5.7% | 0.3% | 3.7% | did not support survival | significantly increased | no significant effect | significantly increased | No differences
